The text below walks through data of paper PMC10688820 (Microbiome Research Reports, 2023).

Assay [1] concerns the target T1, BiBga42A (Bifidobacterium longum, UniProt Z9E2X9H8H4, A160E/A318E, form not given).
T1 construct: C-terminal hexahistidine tag, pET23b, expressed in E. coli BL21 (DE3) ΔlacZ; GH42; homotrimer, active site completed by W200 and F221 of neighbouring subunit
In words: coupled colorimetric Gal release assay (Thio-NADH, […] nm). The assay is classed as biochemical. Conditions: 100 mM citrate-phosphate pH 6.5, 37 °C, 12.5 mM MgCl2 (coupling mix).

In assay [2] the target is T2, BiBga42A (Bifidobacterium longum, UniProt Z9E2X9H8H4, R121A/A160E/A318E, form not given).
T2 construct: C-terminal hexahistidine tag, pET23b, expressed in E. coli BL21 (DE3) ΔlacZ; GH42; homotrimer, active site completed by W200 and F221 of neighbouring subunit
The assay is described as above. The assay is classed as biochemical. Conditions: 100 mM citrate-phosphate pH 6.5, 37 °C, 12.5 mM MgCl2 (coupling mix).

For assay [3], the target named is T3, BiBga42A (Bifidobacterium longum, UniProt Z9E2X9H8H4, A160E/A318E/W326A, form not given).
T3 construct: C-terminal hexahistidine tag, pET23b, expressed in E. coli BL21 (DE3) ΔlacZ; GH42; homotrimer, active site completed by W200 and F221 of neighbouring subunit
The description is as above. The assay is classed as biochemical. Conditions: 100 mM citrate-phosphate pH 6.5, 37 °C, 12.5 mM MgCl2 (coupling mix).

Assay [4] concerns the target T4, BiBga42A (Bifidobacterium longum, UniProt Z9E2X9H8H4, A160E/Y287F/A318E, form not given).
T4 construct: C-terminal hexahistidine tag, pET23b, expressed in E. coli BL21 (DE3) ΔlacZ; GH42; homotrimer, active site completed by W200 and F221 of neighbouring subunit
Described as above. The assay is classed as biochemical. Conditions: 100 mM citrate-phosphate pH 6.5, 37 °C, 12.5 mM MgCl2 (coupling mix); read-out: LNT.

Assay [5] addresses T5, BiBga42A (Bifidobacterium longum, UniProt Z9E2X9H8H4, A160E/F221A/A318E, form not given).
T5 construct: C-terminal hexahistidine tag, pET23b, expressed in E. coli BL21 (DE3) ΔlacZ; GH42; homotrimer, active site completed by W200 and F221 of neighbouring subunit
The description is as above. The assay is classed as biochemical. Conditions: 100 mM citrate-phosphate pH 6.5, 37 °C, 12.5 mM MgCl2 (coupling mix); read-out: LNT.

The target of assay [6] is T6, BiBga42A (Bifidobacterium longum, UniProt Z9E2X9H8H4, A160E/A318E/R327A, form not given).
T6 construct: C-terminal hexahistidine tag, pET23b, expressed in E. coli BL21 (DE3) ΔlacZ; GH42; homotrimer, active site completed by W200 and F221 of neighbouring subunit
The description is as above. The assay is classed as biochemical. Conditions: 100 mM citrate-phosphate pH 6.5, 37 °C, 12.5 mM MgCl2 (coupling mix); read-out: LNT.

The target of assay [7] is T7, BiBga42A (Bifidobacterium longum, UniProt Z9E2X9H8H4, A160E/A318S, form not given).
T7 construct: C-terminal hexahistidine tag, pET23b, expressed in E. coli BL21 (DE3) ΔlacZ; GH42; homotrimer, active site completed by W200 and F221 of neighbouring subunit
In words: X-ray co-crystal structure, […] Å. The assay is classed as binding. Conditions: co-crystallised with 100 mM LNT, pH 5.8; subsites -1 to +3.

Assay [8] addresses T8, BiBga42A (Bifidobacterium longum, UniProt Z9E2X9H8H4, A160E/M262G/A318E, form not given).
T8 construct: C-terminal hexahistidine tag, pET23b, expressed in E. coli BL21 (DE3) ΔlacZ; GH42; homotrimer, active site completed by W200 and F221 of neighbouring subunit
The experiment in a line: coupled colorimetric Gal release assay (Thio-NADH, […] nm). The assay is classed as biochemical. Conditions: 100 mM citrate-phosphate pH 6.5, 37 °C, 12.5 mM MgCl2 (coupling mix); read-out: LNT.

For assay [9], the target named is T9, BiBga42A (Bifidobacterium longum, UniProt Z9E2X9H8H4, A160E, form not given).
T9 construct: C-terminal hexahistidine tag, pET23b, expressed in E. coli BL21 (DE3) ΔlacZ; GH42; homotrimer, active site completed by W200 and F221 of neighbouring subunit
The assay is described as above. The assay is classed as biochemical. Conditions: 100 mM citrate-phosphate pH 6.5, 37 °C, 12.5 mM MgCl2 (coupling mix); read-out: pNP-Gal.

The target of assay [10] is T10, BiBga42A (Bifidobacterium longum, UniProt Z9E2X9H8H4, A318E, form not given).
T10 construct: C-terminal hexahistidine tag, pET23b, expressed in E. coli BL21 (DE3) ΔlacZ; GH42; homotrimer, active site completed by W200 and F221 of neighbouring subunit
The description is as above. The assay is classed as biochemical. Conditions: 100 mM citrate-phosphate pH 6.5, 37 °C, 12.5 mM MgCl2 (coupling mix); read-out: pNP-Gal.

Assay [11] deals with BiBga42A E160A/E318A double mutant (Bifidobacterium longum subsp. infantis ATCC 15697). The experiment in a line: crystal structure; hanging drop vapor diffusion, 20 °C, 20 mg/mL protein; trimer seen by a crystallographic 3-fold axis (WT-GOL, E318S-LNT) or within the asymmetric unit (E160A/E318A-Gal).
The target in assay [12] is BiBga42A E318S mutant (Bifidobacterium longum subsp. infantis ATCC 15697). The assay is described as above.
The target of assay [13] is BiBga42A wild-type (WT) enzyme, glycoside hydrolase family 42 β-galactosidase from Bifidobacterium longum subsp. infantis ATCC 15697 (Bifidobacterium longum subsp. infantis ATCC 15697). Described as above.

Like-named read-outs stand apart in the source and are kept apart here.

In the case of `CC(=O)N[C@H]1C(O)O[C@H](CO)[C@@H](O)[C@@H]1O[C@@H]1O[C@H](CO)[C@H](O)[C@H](O)[C@H]1O` (some centres unmarked) [LNB], at BiBga42A [1] (read-out: LNB), the Km came to 25 mM.

On to `CC(=O)N[C@H]1[C@H](O[C@H]2[C@@H](O)[C@@H](CO)O[C@@H](O[C@H]3[C@H](O)[C@@H](O)C(O)O[C@@H]3CO)[C@@H]2O)O[C@H](CO)[C@@H](O)[C@@H]1O[C@@H]1O[C@H](CO)[C@H](O)[C@H](O)[C@H]1O` (some centres unmarked) [LNT], for which the Km came to 2.7 mM on BiBga42A [1] (read-out: LNT); 16 mM at BiBga42A [2] (read-out: LNT); 7.7 mM at BiBga42A [3] (read-out: LNT); 2.6 mM on BiBga42A [4]; 8.4 mM on BiBga42A [5]; 11 mM at BiBga42A [6]. Besides, the Km on BiBga42A [8] came to 3 mM. The “X-ray co-crystal structure, 2.2 Å” value at BiBga42A [7] is on record as “An LNT-complexed crystal was indeed obtained for the mutant”.

As to `O=[N+]([O-])c1ccc(O[C@@H]2O[C@H](CO)[C@H](O)[C@H](O)[C@H]2O)cc1` [pNP-Gal], the Km came out at 0.57 mM at BiBga42A [1] (read-out: pNP-Gal); 1.4 mM on BiBga42A [2] (read-out: pNP-Gal); 12 mM at BiBga42A [3] (read-out: pNP-Gal); 1.4 mM at BiBga42A [9]; 0.94 mM on BiBga42A [10].

On to “BiBga42A E160A/E318A double mutant (enzyme)”, for which, in assay [11], the stoichiometry N was found to be 3.

In the case of BiBga42A E318S mutant (enzyme), in assay [12], the stoichiometry N was 3.

Consider “BiBga42A wild-type (WT) enzyme, glycoside hydrolase family 42 β-galactosidase from Bifidobacterium longum subsp. infantis ATCC 15697”, for which the stoichiometry N in assay [13] amounted to 3.

One may read the stoichiometry N as a count of units in the complex or per binding partner.
